Source: patent US20100069476A1, “COMPOSITIONS AND METHODS FOR REDUCTION OF CUTANEOUS PHOTOAGEING” (MITSUI NORIN CO., LTD, priority 2005, published 2010)

Experiments:
[1] = test system: TIMP; assay: Expression of tissue inhibitor of matrix metalloproteinase in UVB exposed skin; format: in vivo, mice; conditions: topical
Excerpt: 5. Tissue inhibitor of matrix metalloproteinase (TIMP).
(§1) Most matrix proteins provide tensile strength to the skin, and are therefore thought to be associated with photoageing and/or wrinkling of skin. […] The blots were stripped and re-probed for β-actin antibody to verify equal protein loading and equal transfer of proteins from gel to membrane.

[2] = test system: UV-induced markers of oxidative stress; assay: UV-induced markers of oxidative stress and skin appearance, UVB one month on alternate days; format: in vivo, mice
Excerpt: In another exemplary treatment, mice were exposed to UVB (90 mJ/cm^2) for a period of one month on alternate days with or without polyphenone E in the drinking water (0.2%, w/v). Remarkably, this protocol inhibited UV-induced markers of oxidative stress, however, to a lesser extent than topical treatment.

[3] = test system: UVB-induced adverse effects in the skin; assay: Preliminary dose-dependent efficacy against UVB-induced adverse effects in the skin; format: in vivo, mice; conditions: topical 1 mg EGCG/cm^2 skin area, preliminary studies
Experimental: (§3) SKH-1 hairless mice were used at an age of between 6-8 weeks. The mice were UVB exposed (90 mJ/cm^2) for two months on alternate days for the present photoageing model. At the termination of the experiment, mice were sacrificed 24 hr after the last UV exposure, skin biopsies were collected for analyzing various parameters.
Ascorbic acid and EGCG (or polyphenon E) were dissolved at various concentrations in a hydrophilic cream and were topically applied on the mouse skin 25-30 min before each exposure of UVB. In preliminary studies, we tested the efficacy of AA and EGCG dose-dependently against UVB-induced adverse effects in the skin.

[4] = test system: MMP-2, MMP-3, MMP-7 and MMP-9; assay: UVB-induced expression of matrix metalloproteinases by western blot; format: in vivo, mice; conditions: EGCG about 1 mg/cm^2, ascorbic acid about 0.5 mg/cm^2, topical
Excerpt: 4. Matrix metalloproteinases, like MMP-2, MMP-3, MMP-7 and MMP-9 which play a major role in degradation of extracellular matrix of the skin and leads to skin aging or wrinkle formation.
(§2) Hydrophilic cream was used as a vehicle.
as §1, with “skin. We previously reported that chronic exposure of skin to UVB induces the up-regulation of several MMP, particularly, MMP-2, MMP-3, MMP-7 and MMP-9.” for “skin.”

[5] = test system: SKH-1 hairless mice; conditions: for prevention of UVB-induced skin damage as measured by the bi-fold thickness test: topical at optimum dosages (AA 0.5 mg/cm^2, EGCG 1 mg/cm^2), UVB 90 mJ/cm^2 two months on alternate days
Experimental: as §3
Ascorbic acid and EGCG (or polyphenon E) were dissolved at various concentrations in a hydrophilic cream and were topically applied on the mouse skin 25-30 min before each exposure of UVB. […] Therefore, to evaluate the anti-photoaging effects, we used this dose in all the experiments performed.
Bi-fold skin thickness of the UV exposed skin site with or without the treatment of ascorbic acid (AA) and EGCG.
Control experiments were performed to verify skin damage due to UVB exposure at the above dosage regimen. […] In the below experiments, mice were irradiated to UVB (90 mJ/cm^2) for two months on alternate days to effect photoageing of the skin. Mice were topically treated either with AA, EGCG or a combination of AA (unless indicated otherwise at 0.5 mg EGCG/cm^2 skin area) and EGCG (unless indicated otherwise at 1 mg EGCG/cm^2 skin area) before each exposure of the UVB to determine the photoprotective effect of these agents. Hydrophilic cream was used as a vehicle. UVB alone irradiated mice (control) were topically treated with vehicle only before UVB exposure.
Therefore, and based on these findings, dosages of ascorbic acid for selected experiments were maintained at about or below 0.5 mg/cm^2.
To determine if the effect was additive or synergistic, ascorbic acid and EGCG were topically used at the above determined optimum dosages.

[6] = test system: oxidation of proteins in the skin; assay: UVB-induced oxidation of proteins in the skin (protein carbonyl formation, OxyBlot western blot); format: in vivo, mice; conditions: EGCG about 1 mg/cm^2, ascorbic acid about 0.5 mg/cm^2, topical
Experimental: as §2
FIG. 4 depicts a western blot analysis using antibodies against carbonyl-containing proteins. Protein oxidation was determined following western blot analysis by using OxyBlot Protein Oxidation Detection kit (Intergen Company, Purchase, N.Y.).

[7] = test system: H2O2; assay: Intracellular release of H2O2 in skin cells after UVB (dihydrorhodamine 123), topical treatment; format: in vivo, mice; conditions: for effect on UVB-induced H2O2 production in cells: EGCG about 1 mg/cm^2, ascorbic acid about 0.5 mg/cm^2, topical; for H2O2 production in skin cells, control experiments without UVB: topical treatment individually
Experimental: 2. Hydrogen peroxide production as a marker of oxidative stress.
as §2
After UVB exposure, a single cell suspension from the epidermis and dermis was prepared following procedures well known in the art. H2O2 was assayed using dihydrorhodamine 123 as a fluorescent dye probe. […] Treatment with ascorbic acid and EGCG inhibited UVB-induced H2O2 production in cells.

| Compound | expression of TIMP [1] | chemopreventive efficacy, compared ([2]; UVB 90 mJ/cm^2 one month on alternate days) | skin appearance in comparison to UV alone exposed skin sites ([2]; plus UV exposed mice) | chemopreventive effects against UVB radiation [3] | effect on UVB-induced expression of selected MMP [4] | prevention of UVB-induced skin damage as measured by the bi-fold thickness test [5] | dosage up to which photoprotection increased (bi-fold thickness test) ([5]; topical, little or no further beneficial effect at increasing dosages) | effect on UVB-induced oxidation of proteins [6] | effect on UVB-induced H2O2 production in cells [7] | H2O2 production in skin cells, control experiments without UVB [7] | inflammatory reaction of skin ([5]; topical doses substantially above 0.5 mg/cm^2 of skin) | optimum dosage (protection measured by bi-fold skin thickness) ([5]; topical, data not shown) |
| --- | --- | --- | --- | --- | --- | --- | --- | --- | --- | --- | --- | --- |
| O=C(O[C@@H]1Cc2c(O)cc(O)cc2O[C@@H]1c1cc(O)c(O)c(O)c1)c1cc(O)c(O)c(O)c1 [EGCG, epigallocatechin gallate] | up-regulated | superior to polyphenone E | relatively better | significant chemopreventive effects | inhibited UVB-induced expression of selected MMP to at least some degree | substantially less protection | about 1.0 mg/cm^2 | inhibited UVB-induced oxidation of proteins to some degree | inhibited | did not induce H2O2 production |  |  |
| O=C1O[C@H]([C@@H](O)CO)C(O)=C1O [ascorbic acid] | up-regulated |  |  |  | inhibited UVB-induced expression of selected MMP to at least some degree | substantially less protection |  | inhibited UVB-induced oxidation of proteins to some degree | inhibited | did not induce H2O2 production | tended to provoke an inflammatory reaction | about 0.5 mg/cm^2 |
